Reference: US6235736A, “3-anilino-2-cycloalkenone derivatives” (Nikken Chemicals Co., Ltd., priority 1997, dated 2001)

system: Type IV PDE; assay: PDE IV inhibitory activity (isozyme partially purified from rat neutrophils, 3H-cAMP substrate); type: biochemical; conditions: rat neutrophil PDE IV, 30° C., 30 minutes, read-out: PDE IV inhibiting action IC50
Experimental: Type I, III, IV, and V PDE isozymes were prepared to study the PDE inhibitory activities of and selectivities with the compound of the invention [Trends Pharmacol Sci., 12, 19-27 (1991)]. Type I PDE was purchased from Sigma Corp. Type III, IV, and V PDE isozymes were partially purified from platelets (Type III and V) or neutrophils (Type IV) collected from rats. Each enzyme source was homogenized in a buffer (pH 6.5) containing 20 mM bisTris, 2 mM EDTA (i.e., ethlenediamine tetraacetate), 2-mercaptoethanol, 0.001 mM pepstatin and 0.01 mM leupeptin and was centrifuged at 30000×G for 30 minutes to obtain a supernatant, which was applied to an ion exchange column (Q-sepharose first flow, Pharmacia Corp.) and was eluted with 0 to 1M sodium acetate. Partially purified isozymes were identified by observing the inhibitory effects of conventional inhibitors.
Each PDE isozyme and the test compound dissolved in DMSO (i.e., dimethylsulfoxide) were added to 50 mM Tris--HCI buffer containing 5 mM magnesium chloride. ^3 H-cAMP (for type III and IV PDE) or ^3 H-cGMP (for type I and V PDE) were added as substrates and were reacted at 30° C. for 30 minutes. The reaction was terminated by placing the test tube in boiling water of 100° C. for 5 minutes. The nucleotides formed by PDE were broken down to ^3 H-adenosine or ^3 H-guanosine by 5'-nucleotidase. The substrate and reaction product were separated through an ion-exchange column (i.e., QAE sephadex, Pharmacia Corp.)
The eluted ^3 -H-nucleoside was measured for its radioactivity by a liquid scintillation counter. The inhibitory activities of the compound of the present invention are shown by the IC50 value (M). Further, the inhibitory activities of the test samples against type I, III, and V PDE are 1/10 or less than that against Type IV PDE.

SMILES	IC50 [nM]
COc1ccc(NC2=C(C)C(=O)CC2)cc1O[C@@H]1C[C@H]2CC[C@@H]1C2 (racemic) [Compound No. 44, 3-[3-[(1RS,2RS,4SR)-bicyclo[2.2. 1]hept-2-yloxy]-4-methoxyanilino]-2-methyl-2-cyclopenten-1-one]	220
CCC1=C(Nc2ccc(OC)c(O[C@@H]3C[C@H]4CC[C@@H]3C4)c2)CCC1=O (racemic) [Compound No. 45, 3-[3-[(1RS,2RS,4SR)-bicyclo[2.2. 1]hept-2-yloxy]-4-methoxyanilino]-2-ethyl-2-cyclopenten-1-one]	80
COc1ccc(NC2=C(C)C(=O)CCC2)cc1O[C@@H]1C[C@H]2CC[C@@H]1C2 (racemic) [Compound No. 46, 3-[3-[(1RS,2RS,4SR)-bicyclo[2.2. 1]hept-2-yloxy]-4-methoxyanilino]-2-methyl-2-cyclohexen-1-one]	260
COc1ccc(N(C)C2=C(C)C(=O)CC2)cc1O[C@@H]1C[C@H]2CC[C@@H]1C2 (racemic) [Compound No. 47, 3-[3-[(1RS,2RS,4SR)-bicyclo[2.2. 1]hept-2-yloxy]4-methoxy-N-methylanilino]-2-methyl-2-cyclopenten-1-one]	1600
COc1ccc(N(Cc2ccccc2)C2=CC(=O)CC2)cc1O[C@@H]1C[C@H]2CC[C@@H]1C2 (racemic) [Compound No. 81, 3-[N-benzyl-3-[(1RS,2RS,4SR)-bicyclo[2.2. 1]hept-2-yloxy]4-methoxyanilino]-2-cyclopenten-1-one]	1000
COc1ccc(N(Cc2ccncc2)C2=CC(=O)CCC2)cc1O[C@@H]1C[C@H]2CC[C@@H]1C2 (racemic) [Compound No. 85, 3-[3-[(1RS,2RS,4SR)-bicyclo[2.2. 1]hept-2-yloxy]4-methoxy-N-(4-pyridylmethyl)anilino]-2-cyclohexen-1-one]	3600
COc1ccc(N(Cc2ccc3ccccc3n2)C2=CC(=O)CC2)cc1O[C@@H]1C[C@H]2CC[C@@H]1C2 (relative stereo) [Compound No. 82, 3-[3-[(1RS,2RS,4SR)-bicyclo[2.2. 1]hept-2-yloxy]4-methoxy-N-(2-quinolinemethyl)anilino]-2-cyclopenten-1-one]	530
COc1ccc(NC2=CC(=O)CC(C)(C)C2)cc1OC1CCCC1 [Compound No. 3, 3-(3-cycloientyloxy-4-methoxyanilino)-5,5-dimethyl-2-cyclohexen-1-one]	4900
COc1ccc(NC2=C(C)C(=O)CC2)cc1OC1CCCC1 [Compound No. 4, 3-(3-cyclopentyloxy-4-methoxyanilino)-2-methyl-2-cyclopenten-1-one]	390
COc1ccc(NC2=C(Cl)C(=O)CC2)cc1OC1CCCC1 [Compound No. 6, 2-chloro-3-(3-cyclopentyloxy-4-methoxyanilino)-2-cyclopenten-1-one]	540
COc1ccc(NC2=CC(=O)CC2)cc1OCCc1ccccc1 [Compound No. 11, 3-(4-methoxy-3-phenethyloxyanilino)-2-cyclopenten-1-one]	4000
CCCCOc1cc(NC2=C(C)C(=O)CC2)ccc1OC [Compound No. 18, 3-(3-butoxy-4-methoxyanilino)-2-methyl-2-cyclopenten-1-one]	1700
COc1ccc(NC2=CC(=O)CCC2)cc1OCc1ccccc1 [Compound No. 20, 3-(3-benzyloxy-4-methoxyanilino)-2-cyclohexen-1-one]	44000
COc1ccc(NC2=C(CN(C)C)C(=O)CC2)cc1OC1CCCC1 [Compound No. 24, 3-(3-cyclopentyloxy-4-methoxyanilino)-2-dimethylaminomethyl-2-cyclopenten-1-one]	61000
COc1ccc(NC2=C(CN3CCOCC3)C(=O)CC2)cc1OC1CCCC1 [Compound No. 25, 3-(3-cyclopentyloxy-4-methoxyanilino)-2-(4-morpholinomethyl)-2-cyclopenten-1-one]	17000
COc1ccc(N(C(C)=O)C2=CC(=O)CC2)cc1OC1CCCC1 [Compound No. 29, 3-(N-acetyl-3-cyclopentyloxy-4-methoxyanilino)-2-cyclopenten-1-one]	48000
COc1ccc(NC2=CC(=O)CC(c3ccccc3)C2)cc1OC1CCCC1 (stereo not shown) [Compound No. 39, 3-(3-cyclopentyloxy-4-methoxyanilino)-5-phenyl-2-cyclohexen-1-one]	3900
COc1ccc(NC2=C(C)C(=O)CC2)cc1OCCc1cccc2ccccc12 [Compound No. 43, 3-[4-methoxy-3-[2-(1-naphthyl)ethoxy]anilino]-2-methyl-2-cyclopenten-1-one]	1300
COc1ccc(NC2=C(Cc3ccccc3)C(=O)CCC2)cc1OC1CCCC1 [Compound No. 69, 2-benzyl-3-(3-cyclopentyloxy-4-methoxyanilino)-2-cyclohexen-1-one]	1100
COc1ccc(N(C)C2=C(C)C(=O)CC2)cc1OC1CCCC1 [Compound No. 70, 3-(3-cyclopentyloxy-4-methoxy-N-methylanilino)-2-methyl-2-cyclopenten-1-one]	3100
COc1ccc(N(Cc2ccccc2)C2=C(C)C(=O)CC2)cc1OC1CCCC1 [Compound No. 71, 3-(N-benzyl-3-cyclopentyloxy-4-methoxyanilino)-2-methyl-2-cyclopenten-1-one]	8200
COc1ccc(N(Cc2ccc3ccccc3n2)C2=C(C)C(=O)CC2)cc1OC1CCCC1 [Compound No. 72, 3-[3-cyclopentyloxy-4-methoxy-N-(2-quinolylemethyl)anilino]-2-methyl-2-cyclopenten-1-one]	3000
COc1ccc(N(Cc2ccc3ccccc3c2)C2=C(C)C(=O)CC2)cc1OC1Cc2ccccc2C1 [Compound No. 74, 3-[3-(2-indanyloxy)-4-methoxy-N-(2-naphthylmethyl)anilino]-2-methyl-2-cyclopenten-1-one]	3500
COc1ccc(NC2=CC(=O)CC2)cc1OCCc1cccc2ccccc12 [compound 42, 3-[4-methoxy-3-[2-(1-naphthyl)ethoxy]anilino]-2-cyclopenten-1-one]	9600

The remaining lines, values ahead:

IC50 [nM]	SMILES
2200	COc1ccc(NC2=CC(=O)CC(C)C2)cc1OC1CCCC1 (stereo not shown) [Compound No. 5, 3-(3-cycloientyloxy-4-methoxyanilino)-5-methyl-2-cyclohexen-1-one]
7100	COc1ccc(NC2=CC(=O)CC2)cc1OCC1CC1 [Compound No. 15, 3-(3-cyclopropylmethoxy-4-methoxyanilino)-2-cyclopenten-1-one]
1800	COc1ccc(NC2=CC(=O)CC2)cc1OCCC1Cc2ccccc2C1 [Compound No. 34, 3-[3-[2-(2-indanyl)ethoxy]-4-methoxyanilino]-2-cyclopenten-1-one]
8900	COc1ccc(NC2=CC(=O)CC2)cc1OC1CCOC1 (stereo not shown) [Compound No. 36, 3-[4-methoxy-3-(3-2,3,4,5-tetrahydrofuranyloxy)anilino]-2-cyclopenten-1-one]
17000	COc1ccc(NC2=CC(=O)C(C)(C)CC2)cc1OC1CCCC1 [Compound No. 38, 3-(3-cyclopentyloxy-4-methoxyanilino)-6,6-dimethyl-2-cyclohexen-1-one]
4000	COc1ccc(NC2=CC(=O)CC2)cc1OCC1CCCC1 [Compound No. 40, 3-(3-cyclopentylmethoxy-4-methoxyanilino)-2-cyclopenten-1-one]
940	COc1ccc(NC2=C(C)C(=O)CC2)cc1OCC1CCCC1 [Compound No. 41, 3-(3-cyclopentylmethoxy-4-methoxyanilino)-2-methyl-2-cyclopenten-1-one]
1900	COc1ccc(NC2=CC(=O)CC2)cc1OCC1CCC1 [Compound No. 51, 3-(3-cyclobutylmethoxy-4-methoxyanilino)-2-cyclopenten-1-one]
550	COc1ccc(NC2=C(C)C(=O)CC2)cc1OCC1CCC1 [Compound No. 52, 3-(3-cyclobutylmethoxy-4-methoxyanilino)-2-methyl-2-cyclopenten-1-one]
730	COc1ccc(NC2=C(C)C(=O)CCC2)cc1OCC1CCCC1 [Compound No. 54, 3-(3-cyclopentylmethoxy-4-methoxyanilino)-2-methyl-2-cyclohexen-1-one]

system: TPA induced ear edema in mouse; assay: TPA induced mouse ear edema assay; type: in vivo, mouse (male ICR); conditions: 0.1 mg applied to right ear immediately after TPA; 6 hour
Experimental: Male ICR mice, 5 week old, were divided into groups of seven to eight. 2 μg of TPA (phorbor 12-ministate; Sigma Co.) in 20 μl acetone was applied to the inner and outer surface of right ear of each mouse to cause a reaction. 0.1 mg of compound was dissolved in 20 μl of a tetrahydrofuran-methanol mixture (mixture ratio 1:1) and the solution (20 μl) applied to the right ear immediately after TPA treatment. After 6 hour, the animals were sacrificed and right ear was punched out (.phi. […]) and weighed. The effect of comppund.was calculated as % inhibition as follows: [formula]

SMILES	% Inhibition of ear edema [%]
COc1ccc(NC2=C(C)C(=O)CC2)cc1O[C@@H]1C[C@H]2CC[C@@H]1C2 (racemic) [Compound No. 44, 3-[3-[(1RS,2RS,4SR)-bicyclo[2.2. 1]hept-2-yloxy]-4-methoxyanilino]-2-methyl-2-cyclopenten-1-one]	74.1
CCC1=C(Nc2ccc(OC)c(O[C@@H]3C[C@H]4CC[C@@H]3C4)c2)CCC1=O (racemic) [Compound No. 45, 3-[3-[(1RS,2RS,4SR)-bicyclo[2.2. 1]hept-2-yloxy]-4-methoxyanilino]-2-ethyl-2-cyclopenten-1-one]	75.3
COc1ccc(N(C)C2=C(C)C(=O)CC2)cc1O[C@@H]1C[C@H]2CC[C@@H]1C2 (racemic) [Compound No. 47, 3-[3-[(1RS,2RS,4SR)-bicyclo[2.2. 1]hept-2-yloxy]4-methoxy-N-methylanilino]-2-methyl-2-cyclopenten-1-one]	59.9
COc1ccc(N(Cc2ccccc2)C2=CC(=O)CC2)cc1O[C@@H]1C[C@H]2CC[C@@H]1C2 (racemic) [Compound No. 81, 3-[N-benzyl-3-[(1RS,2RS,4SR)-bicyclo[2.2. 1]hept-2-yloxy]4-methoxyanilino]-2-cyclopenten-1-one]	82.7
COc1ccc(N(Cc2ccncc2)C2=CC(=O)CCC2)cc1O[C@@H]1C[C@H]2CC[C@@H]1C2 (racemic) [Compound No. 85, 3-[3-[(1RS,2RS,4SR)-bicyclo[2.2. 1]hept-2-yloxy]4-methoxy-N-(4-pyridylmethyl)anilino]-2-cyclohexen-1-one]	70.3
COc1ccc(N(Cc2ccc3ccccc3n2)C2=CC(=O)CC2)cc1O[C@@H]1C[C@H]2CC[C@@H]1C2 (relative stereo) [Compound No. 82, 3-[3-[(1RS,2RS,4SR)-bicyclo[2.2. 1]hept-2-yloxy]4-methoxy-N-(2-quinolinemethyl)anilino]-2-cyclopenten-1-one]	84.4
